Results published in US20220000957A1, “COMPOSITION FOR ALLEVIATING SYMPTOMS OF ANDROPAUSE, CONTAINING EXTRACT OF FICUS AURICULATA LOUR. AS ACTIVE INGREDIENT” (KOREA RESEARCH INSTITUTE OF BIOSCiENCE AND BIOTECHNOLOGY, priority 2018, published 2022).
“And” between values parts separate entries of the source, which are not always exact repeats. Identical values can stand only once.

Assays:
[1] = tested on: prostate-specific antigen (PSA); experiment: Inhibition of testosterone-induced prostate-specific antigen (PSA) expression in LNCaP cells, real-time RT-PCR; type: cell-based; conditions: testosterone 100 nM, 24 hours, no extract
Procedure: Reverse transcription-real-time polymerase chain reaction (real-time RT-PCR) was used to measure the inhibition of expression of prostate-specific antigen (PSA) in testosterone-induced prostate cancer cell lines (LNCaP cells). Specifically, the prostate cancer cell line (LNCaP cells) was dispensed to a 6 well plate at 5×10^5 cells/well. After incubating for 24 hours in an incubator under conditions of 37° C. and 5% CO2, Ficus auriculata Lour. fruit extract of each country of origin (Vietnam, Nepal, Myanmar, Bangladesh, China, Laos) was added at 100 μg/ml and incubated for 3 hours. Testosterone 100 nM was added to each well except for the control and incubated for 24 hours. After incubation for 24 hours, the supernatant was removed, total RNA was extracted using Trizol, and cDNA was synthesized using PrimeScript RT Master Mix (Takara, Japan). The synthesized cDNA was subjected to real-time polymerase chain reaction using TOPreal qPCR 2×PreMIX (Enzynomics, Korea).
Reverse transcription-real-time polymerase chain reaction (real-time RT-PCR) was used to measure the inhibition of expression of prostate-specific antigen (PSA) in testosterone-induced prostate cancer cell lines (LNCaP cells). Specifically, the prostate cancer cell line (LNCaP cells) was dispensed to a 6 well plate at 5×10^5 cells/well. […]

[2] = tested on: androgen receptor (AR); experiment: Androgen receptor (AR) expression in LNCaP cells, real-time RT-PCR; type: cell-based; conditions: no extract

In the case of `C[C@]12CC[C@H]3[C@@H](CCC4=CC(=O)CC[C@@]43C)[C@@H]1CC[C@@H]2O` [testosterone], the “PSA expression increased by testosterone” value [1] is reported as 190% and 180% and the “expression of AR increased by testosterone” value [2] is reported as 140%.
